According to PubChem BioAssay AID256 (DTP/NCI, 2004):
“And” between values parts separate entries of the source, which are not always exact repeats. Identical values can stand only once. Toxic doses and inconclusive results are not listed. How the source made its calls: active means survival T/C of 150% or more; inactive means T/C below 125% in these data.

System: CD2F1 mice, L1210 leukemia ip, survival T/C
Test: NCI In Vivo Anticancer Drug Screen. Data for tumor model L1210 Leukemia (intraperitoneal) in CD2F1 (CDF1) mice
Details: higher = longer survival
In short: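 Transplantable tumor in mice; compound-treated vs vehicle-treated groups. Read-out = treated/control ratio of the measured endpoint.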

[1] = endpoint: mean survival time, dose: 100.0 mg/kg/injection, schedule: Q01DX009 (ip), vehicle: saline with Tween-80
[2] = endpoint: mean survival time, dose: 200.0 mg/kg/injection, schedule: Q01DX009 (ip), vehicle: saline with Tween-80
[3] = endpoint: mean survival time, dose: 400.0 mg/kg/injection, schedule: Q01DX009 (ip), vehicle: saline with Tween-80
[4] = endpoint: mean survival time, dose: 50.0 mg/kg/injection, schedule: Q01DX001 (ip), vehicle: saline with Tween-80
[5] = endpoint: mean survival time, dose: 100.0 mg/kg/injection, schedule: Q01DX001 (ip), vehicle: saline with Tween-80
[6] = endpoint: mean survival time, dose: 200.0 mg/kg/injection, schedule: Q01DX001 (ip), vehicle: saline with Tween-80
[7] = endpoint: mean survival time, dose: 100.0 mg/kg/injection, schedule: Q01DX001 (ip), vehicle: saline
[8] = endpoint: mean survival time, dose: 200.0 mg/kg/injection, schedule: Q01DX001 (ip), vehicle: saline
[9] = endpoint: mean survival time, dose: 100.0 mg/kg/injection, schedule: Q04DX003 (ip), vehicle: saline with Tween-80
[10] = endpoint: mean survival time, dose: 200.0 mg/kg/injection, schedule: Q04DX003 (ip), vehicle: saline with Tween-80
[11] = endpoint: mean survival time, dose: 400.0 mg/kg/injection, schedule: Q04DX003 (ip), vehicle: saline with Tween-80
[12] = endpoint: mean survival time, dose: 400.0 mg/kg/injection, schedule: Q01DX001 (ip), vehicle: saline

Measured: T/C

COc1ccc2nc3cc(Cl)ccc3c(N)c2c1
inactive: endpoint: mean survival time, dose: 2.5 mg/kg/injection, schedule: Q01DX009 (ip), vehicle: Klucel (hydroxypropylcellulose) (HPC) 110 % of control | endpoint: mean survival time, dose: 5.0 mg/kg/injection, schedule: Q01DX009 (ip), vehicle: Klucel (hydroxypropylcellulose) (HPC) 103 % of control | endpoint: mean survival time, dose: 10.0 mg/kg/injection, schedule: Q01DX009 (ip), vehicle: Klucel (hydroxypropylcellulose) (HPC) 98 % of control

CCOC(=O)NC12c3ccccc3C(c3ccccc31)C(C(=O)O)C2C(=O)O (centres undefined)
inactive: [1] 90 % of control | [2] 100 % of control | [3] 103 % of control

CC1(C)OC2C(CO)OC(n3nc(SCc4ccccc4)c(=S)[nH]c3=O)C2O1 (centres undefined)
inactive: endpoint: median survival time, dose: 12.5 mg/kg/injection, schedule: Q01DX005 (ip), vehicle: distilled water + Tween-80 96 % of control | endpoint: median survival time, dose: 25.0 mg/kg/injection, schedule: Q01DX005 (ip), vehicle: distilled water + Tween-80 103 % of control | endpoint: median survival time, dose: 50.0 mg/kg/injection, schedule: Q01DX005 (ip), vehicle: distilled water + Tween-80 96 % of control | endpoint: median survival time, dose: 100.0 mg/kg/injection, schedule: Q01DX005 (ip), vehicle: distilled water + Tween-80 96 % of control | endpoint: median survival time, dose: 200.0 mg/kg/injection, schedule: Q01DX005 (ip), vehicle: distilled water + Tween-80 95 % of control

O=C(O)/C=C/c1ccc([N+](=O)[O-])o1
inactive: endpoint: mean survival time, dose: 25.0 mg/kg/injection, schedule: Q01DX001 (ip), vehicle: saline with Tween-80 96 % of control | [4] 89 % of control | [5] 115 % of control and 98 % of control | [6] 94 % of control

COc1cccc(NC(=O)NC2C(OC(C)=O)OC(COC(C)=O)C(OC(C)=O)C2OC(C)=O)c1 (centres undefined)
inactive: endpoint: mean survival time, dose: 12.5 mg/kg/injection, schedule: Q01DX009 (ip), vehicle: other 98 % of control | endpoint: mean survival time, dose: 25.0 mg/kg/injection, schedule: Q01DX009 (ip), vehicle: other 98 % of control | endpoint: mean survival time, dose: 50.0 mg/kg/injection, schedule: Q01DX009 (ip), vehicle: other 90 % of control | endpoint: mean survival time, dose: 100.0 mg/kg/injection, schedule: Q01DX009 (ip), vehicle: other 90 % of control | endpoint: mean survival time, dose: 200.0 mg/kg/injection, schedule: Q01DX009 (ip), vehicle: other 96 % of control

CC(C)(CO)C(O)C(=O)NC1CCCCC1 (centres undefined)
inactive: [5] 98 % of control | [1] 102 % of control | [6] 102 % of control | [2] 100 % of control | endpoint: mean survival time, dose: 400.0 mg/kg/injection, schedule: Q01DX001 (ip), vehicle: saline with Tween-80 94 % of control | [3] 97 % of control

CCCCC=CC1CCCCC1 (mixture of isomers)
inactive: endpoint: mean survival time, dose: 100.0 mg/kg/injection, schedule: Q04DX003 (ip), vehicle: saline 94 % of control | endpoint: mean survival time, dose: 200.0 mg/kg/injection, schedule: Q04DX003 (ip), vehicle: saline 94 % of control | endpoint: mean survival time, dose: 400.0 mg/kg/injection, schedule: Q04DX003 (ip), vehicle: saline 94 % of control

CC(C)CC(N)C(=O)O (centres undefined) (tested in a mixture with another compound)
inactive: endpoint: median survival time, dose: 3.13 mg/kg/injection, schedule: Q04DX002 (ip), vehicle: saline 111 % of control and 108 % of control | endpoint: median survival time, dose: 6.25 mg/kg/injection, schedule: Q04DX002 (ip), vehicle: saline 105 % of control and 100 % of control and 111 % of control | endpoint: median survival time, dose: 12.5 mg/kg/injection, schedule: Q04DX002 (ip), vehicle: saline 100 % of control and 105 % of control | endpoint: median survival time, dose: 25.0 mg/kg/injection, schedule: Q04DX002 (ip), vehicle: saline 100 % of control and 105 % of control | endpoint: median survival time, dose: 50.0 mg/kg/injection, schedule: Q04DX002 (ip), vehicle: saline 111 % of control and 100 % of control and 108 % of control | endpoint: median survival time, dose: 100.0 mg/kg/injection, schedule: Q04DX002 (ip), vehicle: saline 105 % of control | endpoint: median survival time, dose: 200.0 mg/kg/injection, schedule: Q04DX002 (ip), vehicle: saline 108 % of control | endpoint: median survival time, dose: 400.0 mg/kg/injection, schedule: Q04DX002 (ip), vehicle: saline 96 % of control

O=c1c2ccccc2[nH]c(=S)n1C1CCCC1
inactive: endpoint: mean survival time, dose: 100.0 mg/kg/injection, schedule: Q04DX002 (ip), vehicle: saline with Tween-80 96 % of control | endpoint: mean survival time, dose: 200.0 mg/kg/injection, schedule: Q04DX002 (ip), vehicle: saline with Tween-80 108 % of control | endpoint: mean survival time, dose: 400.0 mg/kg/injection, schedule: Q04DX002 (ip), vehicle: saline with Tween-80 100 % of control

CC(C/C=N/N1CCCCC1)Nc1ccnc2cc(Cl)ccc12 (centres undefined)
inactive: endpoint: mean survival time, dose: 0.78 mg/kg/injection, schedule: Q01DX009 (ip), vehicle: saline with Tween-80 95 % of control | endpoint: mean survival time, dose: 1.56 mg/kg/injection, schedule: Q01DX009 (ip), vehicle: saline with Tween-80 101 % of control | endpoint: mean survival time, dose: 3.13 mg/kg/injection, schedule: Q01DX009 (ip), vehicle: saline with Tween-80 102 % of control

CC12CCC(O)CC1CCC1C2CCC2(C)C(C3=CC(=O)OC3)CCC12 (centres undefined)
inactive: endpoint: mean survival time, dose: 50.0 mg/kg/injection, schedule: Q01DX001 (ip), vehicle: saline 96 % of control | [7] 98 % of control | [8] 98 % of control

O=c1[nH]c(=S)[nH]c(-c2ccccc2)c1CCO
inactive: [9] 97 % of control | [10] 101 % of control | [11] 91 % of control

CC(=O)C1CCC2C3CCC4=CC(=O)CC4(C)C3CCC12C (centres undefined)
inactive: [9] 113 % of control | [10] 124 % of control

c1ccc(-c2nc(-c3ccccc3)n3nc4c(c3c2-c2ccccc2)CCCCCC4)cc1
inactive: [7] 112 % of control | [8] 108 % of control | [12] 87 % of control

Brc1cnc2n[nH]nc2c1
inactive: [7] 109 % of control | [8] 97 % of control | [12] 97 % of control

Cc1ccc(NC(=O)Nc2ccccc2C(N)=O)c([N+](=O)[O-])c1
inactive: endpoint: mean survival time, dose: 100.0 mg/kg/injection, schedule: Q01DX009 (ip), vehicle: Klucel (hydroxypropylcellulose) (HPC) 95 % of control | endpoint: mean survival time, dose: 200.0 mg/kg/injection, schedule: Q01DX009 (ip), vehicle: Klucel (hydroxypropylcellulose) (HPC) 89 % of control | endpoint: mean survival time, dose: 400.0 mg/kg/injection, schedule: Q01DX009 (ip), vehicle: Klucel (hydroxypropylcellulose) (HPC) 95 % of control

CC1OC(=O)c2ccccc2S1=O (centres undefined)
inactive: endpoint: mean survival time, dose: 100.0 mg/kg/injection, schedule: Q01DX009 (ip), vehicle: saline sonified 98 % of control | [9] 98 % of control | endpoint: mean survival time, dose: 200.0 mg/kg/injection, schedule: Q01DX009 (ip), vehicle: saline sonified 97 % of control | [10] 100 % of control | endpoint: mean survival time, dose: 400.0 mg/kg/injection, schedule: Q01DX009 (ip), vehicle: saline sonified 97 % of control | [11] 104 % of control

CC1(c2ccc(O)cc2)OCCCC1([NH-])C[NH-].[Cl][Pt+2][Cl] (centres undefined)
inactive: endpoint: median survival time, dose: 10.0 mg/kg/injection, schedule: Q04DX003 (ip), vehicle: saline 110 % of control | endpoint: median survival time, dose: 20.0 mg/kg/injection, schedule: Q04DX003 (ip), vehicle: saline 106 % of control | endpoint: median survival time, dose: 40.0 mg/kg/injection, schedule: Q04DX003 (ip), vehicle: saline 100 % of control | endpoint: median survival time, dose: 80.0 mg/kg/injection, schedule: Q04DX003 (ip), vehicle: saline with Tween-80 107 % of control | endpoint: median survival time, dose: 80.0 mg/kg/injection, schedule: Q04DX003 (ip), vehicle: saline 103 % of control | endpoint: median survival time, dose: 160.0 mg/kg/injection, schedule: Q04DX003 (ip), vehicle: saline with Tween-80 107 % of control | endpoint: median survival time, dose: 320.0 mg/kg/injection, schedule: Q04DX003 (ip), vehicle: saline with Tween-80 107 % of control

CC1=CC(=C2C=C(C)C(=O)C(C)=C2)C=C(C)C1=O
inactive: [4] 87 % of control | [5] 87 % of control | [6] 91 % of control

Cc1ncc(CO)c(/C=N/NC(N)=S)c1O
inactive: [7] 101 % of control | [8] 100 % of control | [12] 101 % of control

COc1ccc(-c2cc(=O)c3ccc(O)cc3o2)cc1
inactive: endpoint: mean survival time, dose: 75.0 mg/kg/injection, schedule: Q01DX001 (ip), vehicle: saline 104 % of control | endpoint: mean survival time, dose: 150.0 mg/kg/injection, schedule: Q01DX001 (ip), vehicle: saline 90 % of control | endpoint: mean survival time, dose: 300.0 mg/kg/injection, schedule: Q01DX001 (ip), vehicle: saline 104 % of control

O=CNc1ccccc1Cl
inactive: [1] 101 % of control | [9] 94 % of control | [2] 98 % of control | [10] 95 % of control | [3] 91 % of control | [11] 91 % of control

O=c1c([N+](=O)[O-])cn(O)cc1[N+](=O)[O-]
inactive: endpoint: mean survival time, dose: 100.0 mg/kg/injection, schedule: Q01DX001 (ip), vehicle: alkali diluted with saline 100 % of control | endpoint: mean survival time, dose: 200.0 mg/kg/injection, schedule: Q01DX001 (ip), vehicle: alkali diluted with saline 94 % of control | endpoint: mean survival time, dose: 400.0 mg/kg/injection, schedule: Q01DX001 (ip), vehicle: alkali diluted with saline 100 % of control

O=C1OC(c2ccccc2)(c2ccccc2)Cc2ccccc21
inactive: [1] 98 % of control | [2] 102 % of control | [3] 102 % of control
